Inhibition data for 28 molecules are collected here from patent publication US8835428B2, “Diacylglycerol acyltransferase inhibitors” (Piramal Enterprises Limited, priority 2008, dated 2014).

One may read the inhibition as the share of the control response that was lost under treatment. Lower therefore signals little suppression.

Structures are written as SMILES.

The target in this assay is T1, hDGAT1 (Homo sapiens, UniProt O75907).
T1 construct: host or cells: Sf9 insect cells (baculovirus); microsomal preparation
T1 sequence (O75907 1-488): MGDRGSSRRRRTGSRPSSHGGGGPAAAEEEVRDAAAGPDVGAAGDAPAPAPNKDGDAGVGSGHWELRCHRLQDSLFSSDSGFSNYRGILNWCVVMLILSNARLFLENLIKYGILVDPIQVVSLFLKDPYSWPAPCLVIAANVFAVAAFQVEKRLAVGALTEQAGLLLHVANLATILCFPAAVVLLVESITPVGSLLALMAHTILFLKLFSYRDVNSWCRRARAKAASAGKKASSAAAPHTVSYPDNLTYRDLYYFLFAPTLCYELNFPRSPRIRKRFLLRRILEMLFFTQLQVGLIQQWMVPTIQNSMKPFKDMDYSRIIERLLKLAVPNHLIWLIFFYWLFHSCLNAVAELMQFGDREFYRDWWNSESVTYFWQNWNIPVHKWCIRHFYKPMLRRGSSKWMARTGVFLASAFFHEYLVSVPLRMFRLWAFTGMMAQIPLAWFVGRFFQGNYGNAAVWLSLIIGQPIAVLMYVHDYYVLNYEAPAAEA
Briefly: In-vitro DGAT1 assay (hDGAT1 microsomes from Sf9 cells, 14C oleoyl CoA, triglyceride formation). Type of assay: biochemical. The method, boiled down: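 Human DGAT1 in baculovirus-infected Sf9 microsomes (2.5–10 μg), [14C]oleoyl-CoA with 409.5, 1228.5 or 1638 μM 1,2-dioleoyl-sn-glycerol, Tris-HCl pH 7.4 buffer with BSA. Compounds screened at 10, 5 and 1 μM in duplicate. Reaction 10 min at 37 °C; heptane-extracted [14C]triglyceride counted by scintillation.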

`Cc1ccccc1NC(=O)Nc1ccc(-c2cc(C(=O)NC(C(=O)O)C(C)C)on2)cc1` (stereo not shown) [Example 154, 3-methyl-2-(3-(4-(3-o-tolylureido)phenyl)isoxazole-5-carboxamido) butanoic acid] displayed an inhibition at 5 µM of 75 to 100%.

Turning to `CC(C)C[C@H](NC(=O)c1cc(-c2ccc(NC(=O)NC3CCCCC3)cc2)no1)C(=O)O` [Example 83, (S)-2-({3-[4-(3-cyclohexyl-ureido)-phenyl]-isoxazole-5-carbonyl}-amino)-4-methyl-pentanoic acid], the inhibition at 10 µM fell in the range of 50 to 75%.

Consider `CC(C)[C@H](NC(=O)c1c(-c2ccc(Nc3nc4ccc(F)cc4s3)cc2)noc1-c1ccccc1)C(=O)O` [Example 69, (S)-2-({3-[4-(6-Fluoro-benzothiazol-2-ylamino)-phenyl]-5-phenyl-isoxazole-4-carbonyl}-amino)-3-methyl-butyric acid], for which the inhibition at 10 µM is 0 to 50%.

In turn, `CC(C)[C@H](NC(=O)c1nc(-c2ccc(NC(=O)Nc3ccccc3F)cc2)no1)C(=O)O` [Example 349, (S)-2-(3-(4-(3-(2-Fluorophenyl)ureido)phenyl)-1,2,4-oxadiazole-5-carboxamido)-3-methylbutanoic acid] returned an inhibition at 5 µM of 50 to 75%.

For the molecule `COC(=O)[C@@H](NC(=O)c1cc(-c2ccc(Nc3nc4ccc(F)cc4s3)cc2)no1)c1ccccc1` [Example 52, (S)-({3-[4-(6-Fluoro-benzothiazol-2-ylamino)-phenyl]-isoxazole-5-carbonyl}-amino)-phenyl-acetic acid methyl ester], the inhibition at 10 µM lay in the range of 0 to 50%.

For the molecule `CC(C)[C@H](NC(=O)c1onc(-c2ccc(NC(=O)Nc3ccccc3)cc2)c1-c1ccccc1)C(=O)O` [Example 89, (S)-3-Methyl-2-({4-phenyl-3-[4-(3-phenyl-ureido)-phenyl]-isoxazole-5-carbonyl}-amino)-butyric acid], the inhibition at 10 µM is 0 to 50%.

`CC(C)[C@H](NC(=O)c1cc(-c2ccc(NC(=O)Nc3ccc(Cl)cc3F)cc2)no1)C(=O)O` [Example 193, (S)-2-(3-(4-(3-(4-chloro-2-fluorophenyl)ureido)phenyl)isoxazole-5-carboxamido)-3-methylbutanoic acid]: the inhibition at 1 µM is 75 to 100%.

Regarding `COC[C@H](NC(=NO)c1cc(-c2ccc(Nc3nc4ccc(F)cc4s3)cc2)no1)C(=O)OC` [Example 16, (S)-2-({3-[4-(6-Fluoro-benzothiazol-2-ylamino)-phenyl]-N-hydroxy-isoxazole-5-carboximidoyl}-amino)-3-methoxy-propionic acid methyl ester], the inhibition at 10 µM is 50 to 75%.

Consider `CC(C)C[C@H](NC(=O)c1onc(-c2ccc(Nc3nc4ccc(F)cc4s3)cc2)c1-c1ccccc1)C(=O)O` [Example 95, (S)-2-({3-[4-(6-Fluoro-benzothiazol-2-ylamino)-phenyl]-4-phenyl-isoxazole-5-carbonyl}-amino)-4-methyl-pentanoic acid], for which the inhibition at 10 µM lay within 0 to 50%.

For `CC(C)[C@@H](NC(=O)c1cc(-c2ccc(NS(=O)(=O)c3cc(F)cc(F)c3)cc2)no1)C(=O)O` [Example 320, (R)-2-(3-(4-(3,5-Difluorophenylsulfonamido)phenyl)isoxazole-5-carboxamido)-3-methylbutanoic acid], the inhibition at 1 µM lay in the range of 0 to 50%.

Turning to `CC(C)[C@H](NC(=O)c1cc(-c2ccc(NC(=O)Nc3c(F)cccc3C(F)(F)F)cc2)no1)C(=O)O` [Example 230, (S)-2-(3-(4-(3-(2-Fluoro-6-(trifluoromethyl)phenyl)ureido)phenyl)isoxazole-5-carboxamido)-3-methylbutanoic acid], the inhibition at 1 µM fell in the range of 0 to 50%.

`CC(C)[C@@H](C(=O)O)N(C)C(=O)c1cc(-c2ccc(NC(=O)Nc3ccccc3F)cc2)no1` [Example 306, (S)-2-(3-(4-(3-(2-fluorophenyl)ureido)phenyl)-N-methylisoxazole-5-carboxamido)-3-methylbutanoic acid] registered an inhibition at 1 µM of 50 to 75%.

With `CC(C)[C@H](NC(=O)c1csc(-c2ccc(NC(=O)Nc3ccc(F)cc3F)cc2)n1)C(=O)O` [Example 359, (S)-2-(2-(4-(3-(2,4-difluorophenyl)ureido)phenyl)thiazole-4-carboxamido)-3-methylbutanoic acid], the inhibition at 1 µM lay in the range of 0 to 50%.

In turn, `CC(C)C(NC(=O)c1cc(-c2ccc(NC(=O)Nc3ccc(-c4cc(C(=O)NC(C(=O)O)C(C)C)on4)cc3)cc2)no1)C(=O)O` (stereo not shown) [Example 282, 2-({3-[4-(3-{4-[5-(1-Carboxy-2-methyl-propylcarbamoyl)-isoxazol-3-yl]-phenyl}-ureido)-phenyl]-isoxazol-5-carbonyl}-amino)-3-methyl-butyric acid] displayed an inhibition at 5 µM of 0 to 50%.

The molecule `COC(=O)[C@@H](NC(=O)c1cc(-c2ccc(NC(=O)Nc3ccc(F)c(F)c3)cc2)no1)C(C)C` [Example 129, (S)-methyl 2-(3-(4-(3-(3,4-difluorophenyl)ureido)phenyl)isoxazole-5-carboxamido)-3-methylbutanoate] showed an inhibition at 1 µM of 50 to 75%.

In the case of `CC(C)c1ccc(NC(=O)Nc2ccc(-c3cc(C(=O)N[C@H](C(=O)O)C(C)C)on3)cc2)cc1` [Example 228, (S)-2-(3-(4-(3-(4-Isopropylphenyl)ureido)phenyl)isoxazole-5-carboxamido)-3-methylbutanoic acid], the inhibition at 1 µM was 75 to 100%.

For the molecule `COC(=O)C(NC(=O)c1cc(-c2ccc(NC(=O)Nc3cccc(F)c3)cc2)no1)C(C)C` (stereo not shown) [Example 151, Methyl 2-(3-(4-(3-(3-fluorophenyl)ureido)phenyl)isoxazole-5-carboxamido)-3-methylbutanoate], the inhibition at 5 µM fell in the range of 50 to 75%.

In the case of `COC(=O)[C@H](Cc1ccc(O)cc1)NC(=O)c1cc(-c2ccc(NC(=O)Nc3ccc(C)cc3)cc2)no1` [Example 272, (S)-Methyl 3-(4-hydroxyphenyl)-2-(3-(4-(3-p-tolylureido)phenyl)isoxazole-5-carboxamido)propanoate], the inhibition at 5 µM was in the range of 0 to 50%.

As for `COC(=O)[C@H](NC(=NO)c1cc(-c2ccc(Nc3nc4ccc(F)cc4s3)cc2)no1)C(C)C` [Example 40, (R)-2-({3-[4-(6-Fluoro-benzothiazol-2-ylamino)-phenyl]-N-hydroxy-isoxazole-5-carboximidoyl}-amino)-3-methyl-butyric acid methyl ester], the inhibition at 10 µM is 0 to 50%.

The molecule `Cc1cccc(NC(=O)Nc2ccc(-c3cc(C(=O)N[C@H](C(=O)O)C(C)C)on3)cc2)c1` [Example 266, (S)-3-methyl-2-(3-(4-(3-m-tolylureido)phenyl)isoxazole-5-carboxamido)butanoic acid] came in with an inhibition at 5 µM of 75 to 100%.

For the molecule `CC(C)[C@@H](NC(=O)c1cc(-c2ccc(NC(=O)Nc3cccc(C#N)c3)cc2)no1)C(=O)O` [Example 217, (R)-2-(3-(4-(3-(3-cyanophenyl)ureido)phenyl)isoxazole-5-carboxamido)-3-methylbutanoic acid], the inhibition at 1 µM lay in the range of 50 to 75%.

`CC(C)C(NC(=O)c1cc(-c2ccc(NC(=O)Nc3ccc(C4CCCCC4)cc3)cc2)no1)C(=O)O` (stereo not shown) [Example 293, 2-(3-(4-(3-(4-cyclohexylphenyl)ureido)phenyl)isoxazole-5-carboxamido)-3-methylbutanoic acid] registered an inhibition at 1 µM of 75 to 100%.

In turn, `CC(C)[C@@H](N/C(=N/O)c1cc(-c2ccc(NC(=O)Nc3ccccc3F)cc2)no1)C(=O)O` [Example 226, (R,E)-2-(3-(4-(3-(2-Fluorophenyl)ureido)phenyl)-N′-hydroxyisoxazole-5-carboximidamido)-3-methylbutanoic acid] yielded an inhibition at 1 µM of 0 to 50%.

In turn, `CC(C)[C@@H](NC(=NO)c1cc(-c2ccc(Nc3nc4ccc(F)cc4s3)cc2)no1)C(=O)O` [Example 41, (R)-2-({3-[4-(6-Fluoro-benzothiazol-2-ylamino)-phenyl]-N-hydroxy-isoxazole-5-carboximidoyl}-amino)-3-methyl-butyric acid] registered an inhibition at 10 µM of 0 to 50%.

Molecule `CC(C)[C@H](NC(=O)c1cc(-c2ccc(Nc3nc4ccc(F)cc4s3)cc2)no1)C(=O)O` [Example 44, (S)-2-({3-[4-(6-Fluoro-benzothiazol-2-ylamino)-phenyl]-isoxazole-5-carbonyl}-amino)-3-methyl-butyric acid] showed an inhibition at 10 µM of 75 to 100%.

`Cc1ccccc1S(=O)(=O)NC(=O)Nc1ccc(-c2cc(C(=O)NC(C(=O)O)C(C)C)on2)cc1` (stereo not shown) [Example 264, 3-Methyl-2-(3-(4-(3-(o-tolylsulfonyl)ureido)phenyl)isoxazole-5-carboxamido)butanoic acid] showed an inhibition at 5 µM of 0 to 50%.

The molecule `COC(=O)[C@H](CC(C)C)NC(=O)c1cc(-c2ccc(NC(=O)Nc3ccc(F)cc3)cc2)no1` [Example 86, (S)-2-[(3-{4-[3-(4-Fluoro-phenyl)-ureido]-phenyl}-isoxazole-5-carbonyl)-amino]-4-methyl-pentanoic acid methyl ester] yielded an inhibition at 10 µM of 0 to 50%.

`COC(=O)[C@H](C(C)C)N(C)C(=O)c1cc(-c2ccc(NC(=O)Nc3ccccc3F)cc2)no1` [Example 305, (S)-Methyl 2-(3-(4-(3-(2-fluorophenyl)ureido)phenyl)-N-methylisoxazole-5-carboxamido)-3-methylbutanoate]: the inhibition at 1 µM was in the range of 50 to 75%.
